Data published in patent US20040048260A1, “Transfection of nucleic acid” (priority 2002, published 2004).

Experiments:
[1] = Stability of DOTAP coating on 96-well plates under complete medium, examined by microscope; format: physicochemical
Protocol: (§1) Standard 96-well plates were coated with 1,2 bis(oleoyloxy)-3-(trimethylammonio)propane (DOTAP; purchased from Avanti, Alabaster, Ala.), a cationic lipid. More specifically, 50-microliter aliquots of 2.5 nM, 5 nM, 10 nM, 40 nM, 60 nM, and 80 nM DOTAP methanolic solutions were added to the wells of six sets of the 96-well plates respectively. The plates were then dried overnight in a vacuum-drier and stored in a dessicator until use.
In one experiment, 100 microliters of a complete medium (i.e., RPMI medium containing 10% fetal calf serum, 50 units ml^−1 penicillin, and 50 micrograms ml^−1 streptomycin) was added to each well of the coated plates. The coated surfaces and the overlaying medium were then examined under a microscope at 6-hr intervals for 24 hr.

[2] = tested on: fluorescent-labeled oligonucleotide; experiment: Capture of fluorescent-labeled oligonucleotide by coated plates (fluorescent microscope); format: binding; conditions: 0.1 microgram oligonucleotide per well in 100 microliters complete medium
Protocol: as §1
In another experiment, 0.1 microgram of fluorescent-labeled oligonucleotide was added to each well of the coated plates containing 100 microliters of the above-mentioned medium. The plates were then observed under a fluorescent microscope. The fluorescence was detected only on the coated surfaces but not in the medium.

[3] = tested on: HeLa cells; experiment: Transfection of HeLa cells with EGFP plasmid on coated 96-well plates; format: cell-based; conditions: 24 hr
Excerpt: The coated plates prepared in Example 1 were used to transfect HeLa cells with an expression plasmid encoding Enhanced Green Fluorescent Protein (EGFP; purchased from Clontech, Inc., Palo Alto, Calif.). […] Before transfection, 1×10^6 HeLa cells were harvested and resuspended in 5 milliliters of the complete medium described in Example 1. 1 microgram of the EGFP plasmid was mixed with the cells. The mixture was subsequently placed into the coated plates (about 5,000 cells per well). After the cells had grown on the plates for 24 hr, pictures were taken under a fluorescent microscope.
Standard 96-well plates were coated with polyethylenimine […], a cationic polymer. More specifically, PEI (MW 25,000 Daltons) was purchased from Sigma-Aldrich (St. Louis, Mo.) and dissolved in deionized water to reach a concentration of 10 mg/ml. Each PEI solution was passed through a 0.45-micrometer filter membrane. This filtrate was used as the PEI stock solution and stored at 4° C. To coat the plates, the stock solution was diluted with sterile deionized water to 20 microgram/ml and a 10-microliter aliquot was added to each well of 96-well plates. The plates were dried and stored in the manner as described in Example 1.
To conduct transfection, HeLa cells were mixed with the EGFP plasmid in the complete medium described in Example 1 and placed onto the PEI-coated plates. […]

[4] = tested on: HeLa cells; experiment: Transfection of HeLa cells with EGFP plasmid on glass slides tethered with DOTAP or PEI; format: cell-based; conditions: HeLa cells on glass slides printed with gelatin or chitosan and tethered coating, 24 hours
Protocol: Glass slides were tethered with DOTAP or PEI and used to transfect HeLa cells.
More specifically, borosilicate glass slides (VWR Scientific, Media, Pa.) were cleaned with Linbro 7× detergent (ICN Biomedicals, Inc., Aurora, Ohio), diluted 1:3 (v/v) in deionized water, and baked at 450° C. for 4 hr. The slides were then printed with gelatin or chitosan by microcontact printing using polydimethylsiloxane (PDMS; Sylgard 184; Dow Corning, Midland, Mich.) elastomer stamps. See Kam L. et al., J Biomed Mater Res. 55: 487-495 (2001). One milliliter of 10 nM DOTAP solution and 20 microgram/ml PEI solutions were respectively overlaid onto two set of slides for one minute. The slides were then briefly rinsed with Dulbecco's modified Eagle's medium (DMEM; Gibco BRL, Great Island, N.Y.) before use.
HeLa cells were mixed with the EGFP plasmid and seeded onto slides that were placed in 100 mm cell culture dishes containing the above-mentioned complete medium.

Compound: CCCCCCCC/C=C\CCCCCCCC(=O)OCC(C[N+](C)(C)C)OC(=O)CCCCCCC/C=C\CCCCCCCC (stereo not drawn) [DOTAP, 1,2 bis(oleoyloxy)-3-(trimethylammonio)propane]
- liposome-like particles on the coated surfaces or in the medium ([1]; complete medium, 24 hr, all plates): no liposome-like particles were found
- change of coated surfaces under complete medium ([1]; plates coated with 2.5-80 nM DOTAP solutions, examined at 6-hr intervals for 24 hr): no difference
- capture of nucleic acid (location of fluorescence) [2]: effectively capture nucleic acid
- cell shape / spreading on the coated plates ([3]; HeLa cells, microscopic views): spread unexpectedly well
- cells expressing GFP / transfected (of total HeLa cells) ([3]; coated 96-well plates, fluorescent microscope, PEI density greater than 0.3 microgram/cm^2): more than 80%
- cells found to express GFP [4]: 80%
